This is an account of results in patent US10844013B2, “Phenyl amino piperidine mTORC inhibitors and uses thereof” (Navitor Pharmaceuticals, Inc., priority 2016, dated 2020).

Structures can show the parent of a compound that is named as a salt.

The test system of test [1] is pAKT (p-Akt 1/2/3 (Ser473)) in MCF-7 cells. Briefly: AlphaLISA Ultra pAKT assay. Format: cell-based. To be noted: Homo sapiens, MCF7, 2 hours compound incubation. On the procedure:
Example 156: AlphaLISA Ultra pAKT Assay
(§1) Assay Protocol: • 1. MCF-7 cells in Corning 3701 plate and incubate for 20-24 hour. 16,000-20,000 cells will be seeded in 36 μL medium per well. • 2. Change the culture medium with fresh medium and incubate for another 2 hours. • 3. Add 12 μL (4×) compounds into the cell plate by HAMILTON. Final DMSO concentration is 0.5%. Incubate for 2 hours. • 4. Aspirate 38 j L by HAMILTON, 10 μL rest per well. • 5. Add 10 μL 2× lysis buffer using HAMILTON; total volume in wells is 20 μL. Allow cells to shake for 30 min. Cover plate by plastic foil and store plate at −80° C. up to analysis. • 6. Thaw cell lysate at RT and transfer 10 ul lysate to assay plate (Optiplate-384). • 7. Add 5 ul acceptor beads into assay plate and incubation for 2 hours • 8. Add 5 ul donor beads and incubation for 2 hours • 9. Count the plate by EnSpire Multimode Plate Reader
(Bead proximity is the source of the signal in Alpha formats.)

Test [2] deals with pS6K1 (p-p70 S6 Kinase (Thr389)) in MCF-7 cells. Briefly: AlphaLISA Ultra pS6K1 assay. Format: cell-based. To be noted: Homo sapiens, MCF7, 2 h, 2 hours compound incubation. As for the experimental part:
Example 155: AlphaLISA Ultra pS6K1 assay
as §1, with “1. Seed” for “1.”, “20˜24” for “20-24”, “12,000˜16,000” for “16,000-20,000”, “μL” for “j L”

One may read the IC50 as the concentration at which inhibition is half-maximal. Lower therefore signals higher potency. Turning to `Cc1cc(C)c(C(=O)N2CCN(c3ccccc3)C(CO)C2)cc1NC1CCN(c2ccccc2)C1` (stereo not shown) [I-73, (4-{2,4-Dimethyl-5-[(1-phenylpyrrolidin-3-yl)amino]benzoyl}-1-phenylpiperazin-2-yl)methanol], the IC50 is above 10 µM in test [1] and 3 to 5 µM in test [2].
The like results for `Cc1cc(C)c(C(=O)N2CCN(c3cc(F)c(F)cc3C#N)C[C@@H]2C)cc1NC1CCN(c2ccccc2C#N)CC1` [I-69, 2-[(3S)-4-(5-{[1-(2-Cyanophenyl)piperidin-4-yl]amino}-2,4-dimethylbenzoyl)-3-methylpiperazin-1-yl]-4,5-difluorobenzonitrile] were, in that order, above 10 µM and 0.01 to 1 µM.
For the molecule `Cc1cc(C)c(C(=O)N2CCN(c3ccccc3)[C@@H](CO)C2)cc1NC1CCN(c2ccccc2)CC1` [I-54], the IC50 in test [1] is above 10 µM; in test [2] it was 1 to 3 µM.
Regarding `Cc1cc(C)c(C(=O)N2CCN(c3ccccc3C#N)CC2)cc1NC1CCN(c2ccccc2)CC1` [I-56], the IC50 is above 10 µM in test [1] and 1 to 3 µM in test [2].
With `Cc1ccc(NC2CCN(c3ccccc3C#N)CC2)c(C)c1C(=O)N1CCN(c2cccc(F)c2S(N)(=O)=O)CC1` [I-87, 2-(4-(3-(1-(2-cyanophenyl)piperidin-4-ylamino)-2,6-dimethylbenzoyl)piperazin-1-yl)-6-fluorobenzenesulfonamide], the figures for the IC50 in test [1] and in test [2] were above 10 µM and 1 to 3 µM, respectively.
For `Cc1cc(C)c(C(=O)N2CCN(CC(F)(F)F)[C@H](CO)C2)cc1NC1CCN(c2ccccc2C#N)CC1` [I-98, (S)-2-(4-(5-(3-(Hydroxymethyl)-4-(2,2,2-trifluoroethyl)piperazine-1-carbonyl)-2,4-dimethylphenylamino)piperidin-1-yl)benzonitrile] the same measures were above 10 µM and 5 to 10 µM.
In the case of `Cc1cc(C)c(C(=O)N2CCN(c3ccccc3)[C@@H](C(N)=O)C2)c(C)c1NC1CCN(c2cnccn2)CC1` [I-152, (2R)-1-phenyl-4-(2,4,6-trimethyl-3-{[1-(pyrazin-2-yl)piperidin-4-yl]amino}benzoyl) piperazine-2-carboxamide], the IC50 in test [1] and in test [2] was above 10 µM throughout.
With `Cc1cc(C)c(C(=O)N2CCN(c3ccccn3)[C@H](CO)C2)cc1NC1CCN(c2ccccc2OC(F)F)CC1` [I-184, (S)-(5-(1-(2-(difluoromethoxy)phenyl)piperidin-4-ylamino)-2,4-dimethylphenyl)(3-(hydroxymethyl)-4-(pyridin-2-yl)piperazin-1-yl)methanone], the IC50 was above 10 µM in test [1] and 0.01 to 1 µM in test [2].
The like results for `Cc1cc(C)c(C(=O)N2CCN(c3cccnc3[S@](C)(=N)=O)CC2)c(C)c1NC1CCN(c2ncccc2Cl)CC1` [I-175, (R)-(3-(4-(3-((1-(3-chloropyridin-2-yl)piperidin-4-yl)amino)-2,4,6-trimethylbenzoyl)piperazin-1-yl)pyridin-2-yl)(imino)(methyl)-λ^6-sulfanone Trifluoroacetate Salt] were, in that order, above 10 µM and 0.01 to 1 µM.
As to `Cc1cc(C)c(C(=O)N2CCN(c3cccc(F)c3S(=O)(=O)N=C(N(C)C)N(C)C)CC2)cc1NC1CCN(c2ccccc2C#N)CC1` [I-19, 2-{2-[4-(5-{[1-(2-cyanophenyl)piperidin-4-yl]amino}-2,4-dimethylbenzoyl)piperazin-1-yl]-6-fluorobenzenesulfonyl}-1,1,3,3-tetramethylguanidine], the results for the IC50 in test [1] and in test [2] were above 10 µM and 1 to 3 µM, respectively.
In the case of `Cc1cc(C)c(C(=O)N2CCN(c3ccccc3S(N)(=O)=O)CC2)cc1NC1CCN(c2ccccc2C#N)CC1(C)C` (stereo not shown) [I-52, 2-(4-(5-(1-(2-Cyanophenyl)-3,3-dimethylpiperidin-4-ylamino)-2,4-dimethylbenzoyl)piperazin-1-yl)benzenesulfonamide], the IC50 in test [1] and in test [2] was above 10 µM each time.
